This test concerns Wnt activity (wnt-responsive SP5 promoter luciferase reporter in SW480 cells). Description: Wnt reporter screening assay: SP5 promoter-driven firefly luciferase in SW480 cells. In kind it is cell-based. Conditions: Homo sapiens; SW480 colon cancer cells with SP5 promoter luciferase reporter; half-log dilutions, ten micromolar top concentration; read 24-40 h after compound addition; normalized to DMSO; read-out: Wnt inhibition. The source says: Another screening assay for Wnt activity is described as follows. Reporter cell lines can be generated by stably transducing cells of cancer cell lines (e.g., colon cancer) with a lentiviral construct that include a wnt-responsive promoter driving expression of the firefly luciferase gene.
Lentiviral constructs can be made in which the SP5 promoter, a promoter having eight TCF/LEF binding sites derived from the SP5 promoter, is linked upstream of the firefly luciferase gene. The lentiviral constructs can also include a hygromycin resistance gene as a selectable marker. The SP5 promoter construct can be used to transduce SW480 cells, a colon cancer cell line having a mutated APC gene that generates a truncated APC protein, leading to de-regulated accumulation of β-catenin.
Cultured SW480 cells bearing a reporter construct can be distributed at approximately 10,000 cells per well into 96 well or 384 well plates. Compounds from a small molecule compound library can then be added to the wells in half-log dilutions using a ten micromolar top concentration. A series of control wells for each cell type receive only buffer and compound solvent. Twenty-four to forty hours after the addition of compound, reporter activity for luciferase can be assayed, for example, by addition of the BrightGlo luminescence reagent (Promega) and the Victor3 plate reader (Perkin Elmer). Readings can be normalized to DMSO only treated cells, and normalized activities can then be used in the IC50 calculations.
(In a reporter assay the amount or activity of a reporter protein is the signal.)

This is an account of results in patent US11780823B2, “Indazole-3-carboxamides and their use as Wnt/β-catenin signaling pathway inhibitors” (BioSplice Therapeutics, Inc., priority 2011, dated 2023).

Each structure is given as a SMILES string. pIC50: −log10 of the molar value. Bounds are passed on as bounds.

`CN(C)C(=O)Nc1cncc(-c2ccc3[nH]nc(C(=O)Nc4cccnc4)c3c2)c1` [Compound 1, 5-(5-(3,3-dimethylureido)pyridin-3-yl)-N-(pyridin-3-yl)-1H-indazole-3-carboxamide]: the pIC50 was 6.76.

Take `O=C(Nc1ccc(C(F)(F)F)nc1)c1n[nH]c2ccc(-c3cncc(F)c3)cc12` [Compound 2, 5-(5-fluoropyridin-3-yl)-N-(6-(trifluoromethyl)pyridin-3-yl)-1H-indazole-3-carboxamide]: the pIC50 is 5.30. On to `O=C(Nc1ccc(C(F)(F)F)nc1)c1n[nH]c2ccc(-c3cccnc3)cc12` [Compound 3, 5-(Pyridin-3-yl)-N-(6-(trifluoromethyl)pyridin-3-yl)-1H-indazole-3-carboxamide], for which the pIC50 was 6.70.

Take `O=C(Nc1cccnc1)c1n[nH]c2ccc(-c3cccnc3)cc12` [Compound 4, N,5-di(pyridin-3-yl)-1H-indazole-3-carboxamide]: the pIC50 is 6.80. Next, `O=C(Nc1cccc(-c2cccc(F)c2)c1)c1n[nH]c2ccc(-c3cccnc3)cc12` [Compound 5, N-(3′-Fluorobiphenyl-3-yl)-5-(pyridin-3-yl)-1H-indazole-3-carboxamide]: at most 5.00; `O=C(Nc1ccncc1)c1n[nH]c2ccc(-c3cccnc3)cc12` [Compound 6, 5-(Pyridin-3-yl)-N-(pyridin-4-yl)-1H-indazole-3-carboxamide]: 6.57; `CN(C)Cc1cncc(NC(=O)c2n[nH]c3ccc(-c4cccnc4)cc23)c1` [Compound 7, N-(5-((Dimethylamino)methyl)pyridin-3-yl)-5-(pyridin-3-yl)-1H-indazole-3-carboxamide]: 6.96. With `O=C(Nc1ccc(CN2CCCC2)nc1)c1n[nH]c2ccc(-c3cccnc3)cc12` [Compound 8, 5-(Pyridin-3-yl)-N-(6-(pyrrolidin-1-ylmethyl)pyridin-3-yl)-1H-indazole-3-carboxamide], the pIC50 was 6.89. For the molecule `O=C(Nc1cncc(-c2cccc(F)c2)c1)c1n[nH]c2ccc(-c3cccnc3)cc12` [Compound 9, N-(5-(3-Fluorophenyl)pyridin-3-yl)-5-(pyridin-3-yl)-1H-indazole-3-carboxamide], the pIC50 is at most 5.00. On to `CN1CCN(c2ncccc2NC(=O)c2n[nH]c3ccc(-c4cccnc4)cc23)CC1` [Compound 11, N-(2-(4-Methylpiperazin-1-yl)pyridin-3-yl)-5-(pyridin-3-yl)-1H-indazole-3-carboxamide], for which the pIC50 is at most 5.00. For `CN1CCN(c2ccc(NC(=O)c3n[nH]c4ccc(-c5cccnc5)cc34)cn2)CC1` [Compound 12, N-(6-(4-Methylpiperazin-1-yl)pyridin-3-yl)-5-(pyridin-3-yl)-1H-indazole-3-carboxamide], the pIC50 is 7.20. Regarding `O=C(Nc1cccnc1)c1n[nH]c2ccc(-c3cncc(F)c3)cc12` [Compound 13, 5-(5-fluoropyridin-3-yl)-N-(pyridin-3-yl)-1H-indazole-3-carboxamide], the pIC50 was 5.90. Consider `O=C(Nc1ccnnc1)c1n[nH]c2ccc(-c3cccnc3)cc12` [Compound 14, N-(Pyridazin-4-yl)-5-(pyridin-3-yl)-1H-indazole-3-carboxamide], for which the pIC50 is 6.97. With `CN1CCN(Cc2ccc(NC(=O)c3n[nH]c4ccc(-c5cccnc5)cc34)cn2)CC1` [Compound 15, N-(6-((4-Methylpiperazin-1-yl)methyl)pyridin-3-yl)-5-(pyridin-3-yl)-1H-indazole-3-carboxamide], the pIC50 was 7.43. Turning to `O=C(Nc1cccnc1)c1n[nH]c2ccc(-c3cncc(C(F)(F)F)c3)cc12` [Compound 16, N-(pyridin-3-yl)-5-(5-(trifluoromethyl)pyridin-3-yl)-1H-indazole-3-carboxamide], the pIC50 was at most 5.00. Then `O=C(Nc1ccc(Oc2ccccc2F)nc1)c1n[nH]c2ccc(-c3cccnc3)cc12` [Compound 18, N-(6-(2-fluorophenoxy)pyridin-3-yl)-5-(pyridin-3-yl)-1H-indazole-3-carboxamide], with 6.91.

With `O=C(Nc1ccc(Oc2cccc(F)c2)nc1)c1n[nH]c2ccc(-c3cccnc3)cc12` [Compound 19, N-(6-(3-Fluorophenoxy)pyridin-3-yl)-5-(pyridin-3-yl)-1H-indazole-3-carboxamide], the pIC50 is 6.97. Consider `O=C(Nc1ccc(Oc2ccc(F)cc2)nc1)c1n[nH]c2ccc(-c3cccnc3)cc12` [Compound 20, N-(6-(4-Fluorophenoxy)pyridin-3-yl)-5-(pyridin-3-yl)-1H-indazole-3-carboxamide], for which the pIC50 is 6.93. Next, `O=C(Nc1cncc(F)c1)c1n[nH]c2ccc(-c3cccnc3)cc12` [Compound 23, N-(5-Fluoropyridin-3-yl)-5-(pyridin-3-yl)-1H-indazole-3-carboxamide]: 6.92. In the case of `CN(C)Cc1cncc(-c2ccc3[nH]nc(C(=O)Nc4ccc(C(F)(F)F)nc4)c3c2)c1` [Compound 26, 5-(5-((Dimethylamino)methyl)pyridin-3-yl)-N-(6-(trifluoromethyl)pyridin-3-yl)-1H-indazole-3-carboxamide], the pIC50 was 6.68. Then `O=C(Nc1cccnc1)c1n[nH]c2ccc(-c3cncc(NC(=O)N4CCOCC4)c3)cc12` [Compound 32, N-(5-(3-(Pyridin-3-ylcarbamoyl)-1H-indazol-5-yl)pyridin-3-yl) morpholine-4-carboxamide], with 5.90; and `CN(C)Cc1cncc(-c2ccc3[nH]nc(C(=O)Nc4ccc(Oc5ccccc5F)nc4)c3c2)c1` [Compound 36, 5-(5-((Dimethylamino)methyl)pyridin-3-yl)-N-(6-(2-fluorophenoxy)pyridin-3-yl)-1H-indazole-3-carboxamide], with 6.56. As to `Cn1nc(NC(=O)c2n[nH]c3ccc(-c4cccnc4)cc23)cc1C(F)(F)F` [Compound 37, N-(1-Methyl-5-(trifluoromethyl)-1H-pyrazol-3-yl)-5-(pyridin-3-yl)-1H-indazole-3-carboxamide], the pIC50 is 5.95. On to `CN1CCN(c2ccc(NC(=O)c3n[nH]c4ccc(-c5cncc(NC(=O)C6CC6)c5)cc34)cn2)CC1` [Compound 38, 5-(5-(Cyclopropanecarboxamido)pyridin-3-yl)-N-(6-(4-methylpiperazin-1-yl)pyridin-3-yl)-1H-indazole-3-carboxamide], for which the pIC50 is 6.92. As for `O=C(Nc1ccc(C(F)(F)F)nc1)c1n[nH]c2ccc(-c3cncc(NC(=O)C4CC4)c3)cc12` [Compound 39, 5-(5-(Cyclopropanecarboxamido)pyridin-3-yl)-N-(6-(trifluoromethyl)pyridin-3-yl)-1H-indazole-3-carboxamide], the pIC50 is 7.19.

Take `CN(C)Cc1cncc(-c2ccc3[nH]nc(C(=O)Nc4cccnc4)c3c2)c1` [Compound 40, 5-(5-((Dimethylamino)methyl)pyridin-3-yl)-N-(pyridin-3-yl)-1H-indazole-3-carboxamide]: the pIC50 was 7.19. As to `O=C(Nc1cccnc1)c1n[nH]c2ccc(-c3cncc(NC(=O)C4CC4)c3)cc12` [Compound 41, 5-(5-(Cyclopropanecarboxamido)pyridin-3-yl)-N-(pyridin-3-yl)-1H-indazole-3-carboxamide], the pIC50 was 7.17.

In the case of `O=C(NCc1cccnc1)c1n[nH]c2ccc(-c3cccnc3)cc12` [Compound 42, 5-(Pyridin-3-yl)-N-(pyridin-3-ylmethyl)-1H-indazole-3-carboxamide], the pIC50 was 6.30.

As to `O=C(Nc1cccnc1)c1n[nH]c2ccc(-c3cncc(CN4CCCC4)c3)cc12` [Compound 43, N-(Pyridin-3-yl)-5-(5-(pyrrolidin-1-ylmethyl)pyridin-3-yl)-1H-indazole-3-carboxamide], the pIC50 was 7.20. Turning to `CCOc1ccc(NC(=O)c2n[nH]c3ccc(-c4cncc(CN5CCCC5)c4)cc23)cn1` [Compound 44, N-(6-Ethoxypyridin-3-yl)-5-(5-(pyrrolidin-1-ylmethyl)pyridin-3-yl)-1H-indazole-3-carboxamide], the pIC50 was 6.80. For the molecule `CCOc1ccc(NC(=O)c2n[nH]c3ccc(-c4cncc(CN5CCCCC5)c4)cc23)cn1` [Compound 45, N-(6-Ethoxypyridin-3-yl)-5-(5-(piperidin-1-ylmethyl)pyridin-3-yl)-1H-indazole-3-carboxamide], the pIC50 was 6.96.

With `O=C(Nc1cccnc1)c1n[nH]c2ccc(-c3cncc(CN4CCCCC4)c3)cc12` [Compound 46, 5-(5-(Piperidin-1-ylmethyl)pyridin-3-yl)-N-(pyridin-3-yl)-1H-indazole-3-carboxamide], the pIC50 was 7.82. Then `O=C(Nc1cnccc1C(F)(F)F)c1n[nH]c2ccc(-c3cncc(CN4CCCCC4)c3)cc12` [Compound 47, 5-(5-(Piperidin-1-ylmethyl)pyridin-3-yl)-N-(4-(trifluoromethyl)pyridin-3-yl)-1H-indazole-3-carboxamide], with 7.15. Then `O=C(Nc1cnccc1C(F)(F)F)c1n[nH]c2ccc(-c3cccnc3)cc12` [Compound 48, 5-(Pyridin-3-yl)-N-(4-(trifluoromethyl)pyridin-3-yl)-1H-indazole-3-carboxamide], with at most 5.00; and `O=C(Nc1cccnc1)c1n[nH]c2ccc(-c3cccc(CN4CCCC4)c3)cc12` [Compound 49, N-(Pyridin-3-yl)-5-(3-(pyrrolidin-1-ylmethyl)phenyl)-1H-indazole-3-carboxamide], with 7.24.
